Test system: Demodex mites
Assay: in vitro Demodex survival time assay (LT50)
Protocol: FIG. 4 summarizes the activity of 10% chloroquine in water relative to a water control on activity against Demodex mites in an in vitro assay, with an LT5o of 31.6 hours for chloroquine compared to 44.8 hours for the water control, illustrating the inactivation effect of chloroquine on Demodex.
Accordingly, chloroquine and ivermectin may be used to treat SAR-CoV-2 by reducing the microbial load or Demodex population of a patient suffering from viral infection.
In vitro efficacy and mite lifetimes: Relative efficacy of various formulations are evaluated with a demodex survival time experiments. FIG. 3 tabulates demodex survival time, expressed in terms of LT50 (time at which 50% of demodex mites are killed) and/or average minutes to death for various active agents.

## CCN(CC)CCCC(C)Nc1ccnc2cc(Cl)ccc12 (centres unmarked) [chloroquine]
10% chloroquine in water, in vitro assay, water control 44.8 hours
  LT50 (time at which 50% of demodex mites are killed): 31.6 h
In vitro assay (FIGS. 3 and 4)
  ex-vivo activity against Demodex mites: some ex-vivo activity
